Results published in patent US9433603B2, “Use of 3-(R)-[3-(2-methoxyphenylthio)-2-(S)-methylpropyl]amino-3,4-dihydro-2H-1,5-benzoxathiepine for preventing and/or treating cardiotoxic effects caused by chemotherapy and/or radiation” (PIERRE FABRE MEDICAMENT, priority 2011, dated 2016).

Legend:
[1] = tested on: rat cardiomyocytes; assay: Rat cardiomyocyte culture with or without doxorubicin, cell suffering by LDH assay; format: cell-based; settings: 48 hours
Procedure: The effects of 3-(R)-[3-(2-methoxyphenylthio)-2-(S)-methyl-propyl]amino-3,4-dihydro-2H-1,5-benzoxathiepine were assessed in the following cell model: rat cardiomyocytes were placed in culture either in the presence or in the absence of doxorubicin. After 48 hours, cell suffering was quantified by assay of the concentration of lactate dehydrogenase (LDH); LDH is […].

[2] = Effect on normal functioning of the cardiovascular system (earlier work of the inventors); settings: even in strong concentrations
[3] = Cytotoxicity of the compound itself (statement, no method)

Compound	Effect on viability of cardiomyocytes (LDH) ([1]; doxorubicin at 1 and 10 μM, comparable with Triton X-100)	Effect on normal functioning of the cardiovascular system [2]	Effect on the toxic effects of doxorubicin / viability of cardiomyocytes (LDH) ([1]; compound at 10 μM, with doxorubicin)	Cytotoxicity [3]
COc1cccc2c1C(=O)c1c(O)c3c(c(O)c1C2=O)C[C@@](O)(C(=O)CO)C[C@@H]3O[C@H]1C[C@H](N)[C@H](O)[C@H](C)O1 [doxorubicin, reference compound]	significantly affects the viability of cardiomyocytes	–	–	–
COc1ccccc1SC[C@@H](C)CN[C@@H]1COc2ccccc2SC1 [3-(R)-[3-(2-methoxyphenylthio)-2-(S)-methyl-propyl]amino-3,4-dihydro-2H-1,5-benzoxathiepine]	–	does not affect the normal functioning of the cardiovascular system	significantly reduces the toxic effects of doxorubicin	not cytotoxic
